The text below walks through data of patent publication US9145414B2, “1,2,4-triazine-6-carboxamide derivative” (TAIHO PHARMACEUTICAL CO., LTD., priority 2011, dated 2015).

This test addresses human Syk protein (Homo sapiens (Human), UniProt P43405). Briefly: Syk kinase inhibition test. It counts as biochemical. Conditions: Table 95; read-out: SYK inhibitory activity IC50. On the procedure:
Finally, phosphorylated peptides and non-phosphorylated peptides were separated therebetween using LabChip™ 3000 system (Caliper Life Sciences, Inc., excitation wavelength: 488 nm, detection wavelength: 530 nm). Their respective amounts were measured, and the rate of phosphorylation reaction was then determined from the ratio between the amounts. The concentration at which the compound can inhibit 50% phosphorylation reaction is defined as an IC50 value (μM).
Also, known 1,2,4-triazine-6-carboxamide derivatives A, B, and C (WO2000/075113 (A: compound No. 121 and B: compound No. 154) and WO2000/076980 (C: compound No. 39)) were synthesized as control compounds. Their IC50 values (μM) were calculated in the same way as above and then compared with that of the compound of the present invention.
`NC(=O)c1nnc(N[C@@H]2CCCC[C@@H]2N)nc1Nc1ccc2ncccc2c1` [Example 1, 3-((1R,2S)-2-aminocyclohexylamino)-5-(quinolin-6-ylamino)-1,2,4-triazine-6-carboxamide]: the IC50 is 0.4 nM.

For `NC(=O)c1nnc(N[C@@H]2CCCC[C@@H]2N)nc1Nc1cccc2sccc12` [Example 2, 3-((1R,2S)-2-aminocyclohexylamino)-5-(benzo[b]thiophen-4-ylamino)-1,2,4-triazine-6-carboxamide], the IC50 was found to be 0.46 nM.

In the case of `[2H]C([2H])([2H])C([2H])([2H])n1ncc2cc(Nc3nc(N[C@@H]4CCCC[C@@H]4N)nnc3C(N)=O)ccc21` [Example 5, 3-((1R,2S)-2-aminocyclohexylamino)-5-(1-(ethyl-d5)-1H-indazol-5-ylamino)-1,2,4-triazine-6-carboxamide], the IC50 was found to be 0.52 nM.

For `NC(=O)c1nnc(N[C@@H]2CCCC[C@@H]2N)nc1Nc1ccc2nn(C3CCC3)cc2c1` [Example 11, 3-((1R,2S)-2-aminocyclohexylamino)-5-(2-cyclobutyl-2H-indazol-5-ylamino)-1,2,4-triazine-6-carboxamide], the IC50 was determined as 0.47 nM.

As for `Cn1cc(-c2cc(Nc3nc(N[C@@H]4CCCC[C@@H]4N)nnc3C(N)=O)c3cnn(C)c3c2)cn1` [Example 13, 3-((1R,2S)-2-aminocyclohexylamino)-5-(1-methyl-6-(1-methyl-1H-pyrazol-4-yl)-1H-indazol-4-ylamino)-1,2,4-triazine-6-carboxamide], the IC50 turned out to be 0.49 nM.

As for `NC(=O)c1nnc(N[C@@H]2CCCC[C@@H]2N)nc1Nc1cncc(C2CC2)c1` [Example 16, 3-((1R,2S)-2-aminocyclohexylamino)-5-(5-cyclopropylpyridin-3-ylamino)-1,2,4-triazine-6-carboxamide], the IC50 was 0.94 nM.

`Cc1cc2c(Nc3nc(N[C@@H]4CCCC[C@@H]4N)nnc3C(N)=O)cccc2n1C1CC1` [Example 33, 3-((1R,2S)-2-aminocyclohexylamino)-5-(1-cyclopropyl-2-methyl-H-indol-4-ylamino)-1,2,4-triazine-6-carboxamide]: the IC50 amounted to 0.71 nM.

Turning to `COc1ccc2sc(Nc3nc(N[C@@H]4CCCC[C@@H]4N)nnc3C(N)=O)c(C)c2c1` [Example 48, 3-((1R,2S)-2-aminocyclohexylamino)-5-(5-methoxy-3-methylbenzo[b]thiophen-2-ylamino)-1,2,4-triazine-6-carboxamide], the IC50 was found to be 0.27 nM.

Consider `CCn1nc(C)c2ccc(Nc3nc(N[C@@H]4CCCC[C@@H]4N)nnc3C(N)=O)cc21` [Example 50, 3-((1R,2S)-2-aminocyclohexylamino)-5-(1-ethyl-3-methyl-1H-indazol-6-ylamino)-1,2,4-triazine-6-carboxamide], for which the IC50 was determined as 0.42 nM.

`CCn1nc(C)c2cc(Nc3nc(N[C@@H]4CCCC[C@@H]4N)nnc3C(N)=O)ccc21` [Example 56, 3-((1R,2S)-2-aminocyclohexylamino)-5-(1-ethyl-3-methyl-1H-indazol-5-ylamino)-1,2,4-triazine-6-carboxamide]: the IC50 turned out to be 0.5 nM.

For `Cc1cc(Nc2nc(N[C@@H]3CCCC[C@@H]3N)nnc2C(N)=O)cc2cn(C(F)F)nc12` [Example 62, 3-(((1R,2S)-2-aminocyclohexyl)amino)-5-((2-(difluoromethyl)-7-methyl-2H-indazol-5-yl)amino)-1,2,4-triazine-6-carboxamide], the IC50 was 0.37 nM.

As to `CC(C)(C)n1cc2cc(Nc3nc(N[C@@H]4CCCC[C@@H]4N)nnc3C(N)=O)cc(-n3cccn3)c2n1` [Example 66, 3-(((1R,2S)-2-aminocyclohexyl)amino)-5-((2-(tert-butyl)-7-(1H-pyrazol-1-yl)-2H-indazol-5-yl)amino)-1,2,4-triazine-6-carboxamide], the half-maximal inhibitory concentration (IC50) was 0.61 nM.

For the compound `NC(=O)c1nnc(N[C@@H]2CCCC[C@@H]2N)nc1Nc1cc(-c2ncccn2)cs1` [Example 76, 3-(((1R,2S)-2-aminocyclohexyl)amino)-5-((4-(pyrimidin-2-yl)thiophen-2-yl)amino)-1,2,4-triazine-6-carboxamide], the IC50 worked out at 0.55 nM.
